Measured values as given in patent publication US20250049962A1, “NEAR-INFRARED FLUORESCENT CONTRAST BIOIMAGING AGENTS FOR IMAGING OF SENTINEL LYMPH NODES” (Curadel Surgical Innovations, Inc., priority 2021, published 2025).
“Also recorded” adds a separate entry of the source.

What was measured:
[1] = Biodistribution and clearance 4 hours after intravenous injection; format: in vivo, CD-1 mice; settings: 4 hours post iv injection
Protocol: (§1) All foot pad injections and intravenous injections were 10 μL of each of these 500 μM concentrations for a total of 5 nmol per injection.
In order to show the biodistribution benefits of ICB, the same procedure was used using intravenous injections. After 4 hours animals were sacrificed, and the target tissue and other major organs including heart, lung, liver, spleen, pancreas, kidneys, duodenum, intestine, and muscle were resected to quantify biodistribution and clearance. A biodistribution analysis of all three dyes at 4 hours post iv injection.

[2] = Lymph flow imaging after intradermal peri-tail injection; format: in vivo, CD-1 mice; settings: until 15 minutes post injection, ICG at 800 nm, FIG. 4
Protocol: The same procedure was used using intradermal peri-tail injections to visual lymph flow until 15 minutes post injection at which point the animal was sacrificed. […] The arrow with the circle indicates the first-tier node.

Solubility measurement = format: physicochemical
Protocol: However, the contrast agent is soluble in mixtures of water and ethanol. […] After mixing for an extended period, the solutions were filtered using a 0.45 um spin filter. The solvent of known volumes was then removed by evaporation and solubility was determined by measuring the remaining solids in the pre-measured evaporating flask.

[3] = SLN imaging after footpad injection, NIR fluorescence imaging; format: in vivo, CD-1 mice
Excerpt: Neae Infrared fluorescence imaging can be achieved using a number of commercially available imaging systes. For example, the dual-NIR channel FLARE imaging system has been described in detail. It provides simultaneous illumination with white light (400-650 nm) at 40,000 lx, 660 nm NIR Channel 1 excitation at 4 mW/cm^2 and […] NIR Channel 2 excitation at 10 mW/cm^2. Color and two independent NIR fluorescence emission images (≈700 nm for Channel 1 and ≈800 nm for Channel 2) were acquired simultaneously with custom software at rates up to 15 Hz over a 15 cm diameter field of view. NIR fluorescence from Channel 1 was pseudo-colored in red and NIR fluorescence from Channel 2 was pseudo-colored in lime green prior to merger with the color video image. The imaging system was positioned at a distance of 18 inches from the surgical field.
as §1
Sentinel lymph nodes were observed a near infrared (NIR) imaging system.
The target tissue was exposed and the SLN was imaged for NIR fluorescence using dual channels [Channel 1 (700 nm) and Channel 2 (800 nm)] of a NIR imaging system.

CC1(C)C(/C=C/C=C/C=C/C=C2\N(CCCCS(=O)(=O)O)c3ccc4ccccc4c3C2(C)C)=[N+](CCCCS(=O)(=O)[O-])c2ccc3ccccc3c21 [ICG, indocyanine green, reference compound]
signal in the large intestine ([1]; 5 nmol): enhanced signal
signal in the stomach ([1]; 5 nmol): to lesser extent
LN skipping [2]: significant LN skipping

4-[(2Z)-2-[(2E,4E)-5-[3,3-dimethyl-1-(4-sulfobutyl) indol-1-ium-2-yl]penta-2,4-dienylidene]-3,3-dimethylindol-1-yl]butane-1-sulfonic acid [ICB]
route of clearance [1]: completely cleared by the liver
signal in the kidneys ([1]; 5 nmol): Minimal signal
signal in the large intestine ([1]; 5 nmol): enhanced signal
signal in the stomach ([1]; 5 nmol): to lesser extent
solubility (Solubility measurement; D5W): at least 10 mg/mL
solubility (Solubility measurement; water): at least 10 mg/mL
leakage / flow through from sentinel lymph nodes ([3]; 5 nmol footpad injection, CD-1 mice): considerably less leakage over ICG or SLN700; also recorded: little to no significant flow through
first-tier/second-tier signal-to-background ratio ([3]; 15 minutes post-injection, 5 nmol footpad injection, CD-1 mice): 5.4±1.6
brightness of visualization ([3]; compared to SLN700, 700 nm): brighter
liver (hepatic) clearance observed by the imaging ([3]; footpad injection, CD-1 mice): Visible liver (hepatic) clearance
